Experimental data: patent US12336982B2 (RODEO THERAPEUTICS CORPORATION, priority 2018, dated 2025)
pIC50: −log10 of the molar value.

Biological target: T1, recombinant 15-PGDH (Homo sapiens, UniProt P15428)
T1 sequence (P15428 1-266): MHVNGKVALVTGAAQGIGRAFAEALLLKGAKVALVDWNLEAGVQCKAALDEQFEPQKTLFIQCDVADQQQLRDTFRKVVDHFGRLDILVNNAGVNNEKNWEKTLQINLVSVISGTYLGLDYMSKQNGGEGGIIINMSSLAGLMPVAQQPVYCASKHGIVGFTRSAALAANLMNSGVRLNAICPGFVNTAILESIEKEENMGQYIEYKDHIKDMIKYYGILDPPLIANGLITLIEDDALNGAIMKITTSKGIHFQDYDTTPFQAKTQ
Format: biochemical
Conditions: recombinant human 15-PGDH, in vitro; read-out: PDGH Assay-IC50
From the text: The Recombinant 15-PGDH is human unless otherwise specified.

pIC50 | SMILES
> 8.60 | Nc1c([S+]([O-])C2CCC2)sc2nc(-c3cccnc3)cc(C3CCOCC3)c12 (centres unmarked) [Example 43]
> 8.60 | COCCC[S+]([O-])c1sc2nc(-c3cnc(N)nc3)cc(-c3ccc(F)cc3)c2c1N (centres unmarked) [Example 46]
8.00 to 8.60 | CN(C)CCOc1ncc(-c2cc(-c3ccccc3)c3c(N)c([S+]([O-])C4CCC4)sc3n2)cn1 (centres unmarked) [Example 47]
> 8.60 | CN1CCN(c2ncc(-c3cc(-c4ccccc4)c4c(N)c([S@+]([O-])C5CCC5)sc4n3)cn2)CC1 [Example 48]
> 8.60 | Nc1c([S+]([O-])C2CCC2)sc2nc(-c3cccnc3)cc(-c3cccnc3)c12 (centres unmarked) [Example 50]
≤ 8.00 | Nc1c([S@@+]([O-])C2CCC2)sc2nc(-c3cnc(NCCO)nc3)cc(-c3ccccc3)c12 [Example 52]
> 8.60 | CNC(=O)c1ncc(-c2cc(-c3ccccc3)c3c(N)c([S+]([O-])C4CCC4)sc3n2)cn1 (centres unmarked) [Example 53]
> 8.60 | COCCC[S+]([O-])c1sc2nc(-c3cccnc3)cc(C(F)(F)F)c2c1N (centres unmarked) [Example 56]
> 8.60 | Nc1c([S+]([O-])C2CCC2)sc2nc(-c3cccnc3)cc(C(F)(F)F)c12 (centres unmarked) [Example 58]
≤ 8.00 | CC(=O)N1CCC(c2cc(-c3ccc(F)cc3)c3c(N)c([S+]([O-])C4CCC4)sc3n2)CC1 (centres unmarked) [Example 59]
8.00 to 8.60 | CN(C)CCOc1ccc(-c2cc(-c3ccccc3)c3c(N)c([S+]([O-])C4CCC4)sc3n2)cn1 (centres unmarked) [Example 60]
> 8.60 | COCCC[S@@+]([O-])c1sc2nc(-c3cnc(N)nc3)cc(-c3ccc(F)cc3)c2c1N [Example 62]
≤ 8.00 | Cn1cnc(-c2cc(-c3cncnc3)nc3sc([S@@+]([O-])C4CCC4)c(N)c23)c1 [Example 65]
8.00 to 8.60 | COCCC[S+]([O-])c1sc2nc(-c3ccc(NCCO)nc3)cc(-c3ccc(F)cc3)c2c1N (centres unmarked) [Example 70]
> 8.60 | COCC[S+]([O-])c1sc2nc(-c3cncnc3)cc(-c3ccccc3)c2c1N (centres unmarked) [Example 72]
> 8.60 | Nc1ncc(-c2cc(-c3ncccc3F)c3c(N)c([S+]([O-])C4CCC4)sc3n2)cn1 (centres unmarked) [Example 77]
> 8.60 | COCCC[S@@+]([O-])c1sc2nc(-c3cccnc3)cc(C(F)(F)F)c2c1N [Example 78]
≤ 8.00 | COCCC[S@+]([O-])c1sc2nc(-c3cccnc3)cc(C(F)(F)F)c2c1N [Example 79]
> 8.60 | COCC[S@@+]([O-])c1sc2nc(-c3cccnc3)cc(C(F)(F)F)c2c1N [Example 80]
> 8.60 | Nc1c([S+]([O-])C2CCC2)sc2nc(-c3cnc(NCCO)nc3)cc(-c3ccccn3)c12 (centres unmarked) [Example 82]
> 8.60 | Nc1c([S+]([O-])C2CCC2)sc2nc(-c3cncnc3)cc(-c3cccnc3)c12 (centres unmarked) [Example 84]
≤ 8.00 | COCC[S@+]([O-])c1sc2nc(-c3cncnc3)cc(-c3ccccc3)c2c1N [Example 86]
8.00 to 8.60 | Cn1ccc(-c2cc(-c3cccnc3)c3c(N)c([S+]([O-])C4CCC4)sc3n2)cc1=O (centres unmarked) [Example 90]
> 8.60 | CS(=O)(=O)Nc1ncc(-c2cc(-c3cccnc3)c3c(N)c([S+]([O-])C4CCC4)sc3n2)cn1 (centres unmarked) [Example 93]
> 8.60 | Nc1c([S@+]([O-])C2CCC2)sc2nc(-c3ccc(NCCO)nc3)cc(-c3ccccn3)c12 [Example 97]

The next lines start with the compound.

SMILES | pIC50
Nc1c([S@+]([O-])C2CCC2)sc2nc(-c3cnc(NCCO)nc3)cc(-c3cccnc3)c12 (stereo in doubt) [Example 103] | > 8.60
Nc1c([S+]([O-])C2CCC2)sc2nc(-c3cnc(NCCO)nc3)cc(-c3ccccc3)c12 (centres unmarked) [Example 44] | > 8.60
CN(C)CCNc1ncc(-c2cc(-c3ccccc3)c3c(N)c([S+]([O-])C4CCC4)sc3n2)cn1 (centres unmarked) [Example 45] | ≤ 8.00
CN1CCN(c2ncc(-c3cc(-c4ccccc4)c4c(N)c([S@@+]([O-])C5CCC5)sc4n3)cn2)CC1 [Example 49] | ≤ 8.00
Nc1c([S@+]([O-])C2CCC2)sc2nc(-c3cnc(NCCO)nc3)cc(-c3ccccc3)c12 [Example 51] | > 8.60
COCCC[S@@+]([O-])c1sc2nc(-c3cccnc3)nc(-c3ccccc3)c2c1N [Example 54] | > 8.60
COCC[S@@+]([O-])c1sc2nc(-c3cccnc3)nc(-c3ccccc3)c2c1N [Example 55] | > 8.60
COCC[S+]([O-])c1sc2nc(-c3cccnc3)cc(C(F)(F)F)c2c1N (centres unmarked) [Example 57] | > 8.60
CN(C)C(=O)c1ncc(-c2cc(-c3ccccc3)c3c(N)c([S+]([O-])C4CCC4)sc3n2)cn1 (centres unmarked) [Example 61] | 8.00 to 8.60
Nc1c([S+]([O-])C2CCC2)sc2nc(-c3ccc(NCCO)nc3)cc(-c3ccccc3)c12 (centres unmarked) [Example 63] | > 8.60
Cn1cnc(-c2cc(-c3cncnc3)nc3sc([S@+]([O-])C4CCC4)c(N)c23)c1 [Example 64] | > 8.60
Nc1ncc(-c2cc(-c3ccc(F)cn3)c3c(N)c([S+]([O-])C4CCC4)sc3n2)cn1 (centres unmarked) [Example 66] | > 8.60
Nc1ncc(-c2cc(-c3cncc(F)c3)c3c(N)c([S+]([O-])C4CCC4)sc3n2)cn1 (centres unmarked) [Example 67] | > 8.60
CS(=O)(=O)Nc1ncc(-c2cc(-c3ccccc3)c3c(N)c([S@+]([O-])C4CCC4)sc3n2)cn1 [Example 68] | > 8.60
CS(=O)(=O)Nc1ncc(-c2cc(-c3ccccc3)c3c(N)c([S@@+]([O-])C4CCC4)sc3n2)cn1 [Example 69] | ≤ 8.00
COCCC[S+]([O-])c1sc2nc(-c3cnc(NCCO)nc3)cc(-c3ccc(F)cc3)c2c1N (centres unmarked) [Example 71] | 8.00 to 8.60

SMILES | pIC50
COCC[S+]([O-])c1sc2nc(-c3cnc(N)nc3)cc(-c3ccccc3)c2c1N (centres unmarked) [Example 73] | > 8.60
COCCC[S+]([O-])c1sc2nc(-c3cnc4c(cnn4C)c3)cc(-c3cccnc3)c2c1N (centres unmarked) [Example 74] | > 8.60
COCCC[S+]([O-])c1sc2nc(-c3cnc4nn(C)cc4c3)cc(-c3cccnc3)c2c1N (centres unmarked) [Example 75] | > 8.60
Nc1ncc(-c2cc(-c3ncccc3F)c3c(N)c([S+]([O-])C4CCC4)sc3n2)cn1 (centres unmarked) [Example 76] | > 8.60
COCC[S@+]([O-])c1sc2nc(-c3cccnc3)cc(C(F)(F)F)c2c1N [Example 81] | ≤ 8.00
Nc1c([S+]([O-])C2CCC2)sc2nc(-c3ccc(NCCO)nc3)cc(-c3ccccn3)c12 (centres unmarked) [Example 83] | > 8.60
COCC[S@@+]([O-])c1sc2nc(-c3cncnc3)cc(-c3ccccc3)c2c1N [Example 85] | > 8.60
COCC[S@@+]([O-])c1sc2nc(-c3cnc(N)nc3)cc(-c3ccccc3)c2c1N [Example 87] | > 8.60
COCC[S@+]([O-])c1sc2nc(-c3cnc(N)nc3)cc(-c3ccccc3)c2c1N [Example 88] | ≤ 8.00
Cn1cc(-c2cc(-c3cccnc3)c3c(N)c([S+]([O-])C4CCC4)sc3n2)ccc1=O (centres unmarked) [Example 89] | > 8.60
COCCC[S+]([O-])c1sc2nc(-c3cncnc3)cc(-c3ncccn3)c2c1N (centres unmarked) [Example 91] | > 8.60
Nc1c([S+]([O-])C2CCC2)sc2nc(-c3cnc(NCCO)nc3)cc(-c3ccccn3)c12 (centres unmarked) [Example 92] | > 8.60
Nc1c([S@+]([O-])C2CCC2)sc2nc(-c3cnc(NCCO)nc3)cc(-c3ccccn3)c12 [Example 94] | > 8.60
Nc1c([S@@+]([O-])C2CCC2)sc2nc(-c3cnc(NCCO)nc3)cc(-c3ccccn3)c12 [Example 95] | ≤ 8.00
Nc1c([S@@+]([O-])C2CCC2)sc2nc(-c3ccc(NCCO)nc3)cc(-c3ccccn3)c12 [Example 96] | > 8.60
